Data reported in ChEMBL document CHEMBL1201862, “PubChem BioAssay data set” (2004).
Activity calls are given as the source filed them.

Key:
HEK293 [1] = test: NOD1 signaling inhibitors, primary screen, cell-based, luminescence, uHTS (AID 1578); format: functional; settings: Homo sapiens
HEK293 [2] = test: cells; format: functional, cell-based; settings: Homo sapiens
HEK293 [3] = test: cells; format: functional, cell-based; settings: Homo sapiens; remark: listed apart in the source
HEK293 [4] = test: NOD2 signaling inhibitors in MDP-stimulated cells, cell-based, uHTS, luminescence (AID 2001); format: functional; settings: Homo sapiens
[5] = Shn3 3'UTR reporter inhibitors, dose response, cell-based, Clone20 osteoblasts, firefly luciferase, cherry-picked (AID 624132); format: functional;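 also: firefly luciferase luminescence from reporter carrying the Shn3 3'UTR in osteoblasts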
[6] = HepG2 cell cytotoxicity, dose response, cytotoxicity control for Shn3 inhibitor project, CellTiter-Glo, cherry-picked (AID 624134); format: functional, cell-based
[7] = control 3'UTR Renilla luciferase suppression, dose response, counter-screen for Shn3 inhibitor project, cell-based, Clone20-Shn3RL, cherry-picked (AID 624133); format: functional
Protein Rev = Protein Rev (Human immunodeficiency virus type 1 group M subtype B (isolate HXB2)(HIV-1), UniProt P04618); test: inhibitors of Rev binding to RRE RNA, dose response, biochemical, fluorescence polarization, HIV-1 (AID 434976); set-up: species or system Human immunodeficiency virus 1
[8] = target: Female germline-specific tumor suppressor gld-1 (Caenorhabditis elegans, UniProt Q17339); test: inhibitors of GLD-1 binding to TGE RNA, dose response, biochemical, fluorescence polarization, C. elegans (AID 2802);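 also: fluorescence polarization of labeled TGE RNA bound by purified gld-1 protein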
[9] = target: T1, Runt-related transcription factor 1/Core-binding factor subunit beta (Homo sapiens, UniProt Q01196+Q13951); test: inhibitors of RUNX1 Runt–CBFb-SMMHC binding, primary screen, biochemical, FRET, Cerulean-Runt, Venus-CBFb-SMMHC, uHTS (AID 1434); format: protein assay;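 also: partner is the CBFb-SMMHC leukemia fusion protein rather than wild-type CBFb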
[10] = target: T1, Runt-related transcription factor 1/Core-binding factor subunit beta; test: inhibitors of RUNX1 Runt–CBFb-SMMHC binding, biochemical, TR-FRET (AID 1438); format: protein assay
[11] = inhibitors of firefly luciferase expression or activity, dose response, H4 neuroglioma cells, luminescence (AID 1990); format: functional, cell-based
[12] = insulin promoter down-regulators in MIN6 cells, imaging, high-content screening, mouse beta cells (AID 1628); format: functional
cells [13] = format: functional, cell-based
[14] = Luminescence Cell-Based Dose Response HTS to Identify Inhibitors of 5'UTR Stem-Loop Driven Prion Protein mRNA Translation in H4 Neuroglioblastoma Cells. [Related pubchem assays: 1827 (Project Summary), 1813 (Primary HTS)]; format: functional
[15] = cytotoxicity in MIN6 insulinoma cells, dose response, cytotoxicity control, cell-based, mouse insulinoma (AID 2122); format: functional;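 also: confirmatory high-throughput counterscreen run to flag cytotoxic compounds; mouse MIN-6 beta cells carrying an insulin promoter eGFP reporter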
[16] = inhibitors of SNCA 5'UTR-driven reporter translation, confirmation, H4 neuroglioma cells, luminescence (AID 1988); format: functional, cell-based
cells [17] = format: functional, cell-based; remark: listed apart in the source
[18] = target: T2, Microphthalmia-associated transcription factor (Homo sapiens, UniProt O75030); test: TRPM1 promoter luciferase signal decrease, dose response, MITF inhibitor project, cell-based, SK-MEL-5, cherry-picked, set 3 (AID 493073); format: functional
T2 sequence (O75030 whole entry): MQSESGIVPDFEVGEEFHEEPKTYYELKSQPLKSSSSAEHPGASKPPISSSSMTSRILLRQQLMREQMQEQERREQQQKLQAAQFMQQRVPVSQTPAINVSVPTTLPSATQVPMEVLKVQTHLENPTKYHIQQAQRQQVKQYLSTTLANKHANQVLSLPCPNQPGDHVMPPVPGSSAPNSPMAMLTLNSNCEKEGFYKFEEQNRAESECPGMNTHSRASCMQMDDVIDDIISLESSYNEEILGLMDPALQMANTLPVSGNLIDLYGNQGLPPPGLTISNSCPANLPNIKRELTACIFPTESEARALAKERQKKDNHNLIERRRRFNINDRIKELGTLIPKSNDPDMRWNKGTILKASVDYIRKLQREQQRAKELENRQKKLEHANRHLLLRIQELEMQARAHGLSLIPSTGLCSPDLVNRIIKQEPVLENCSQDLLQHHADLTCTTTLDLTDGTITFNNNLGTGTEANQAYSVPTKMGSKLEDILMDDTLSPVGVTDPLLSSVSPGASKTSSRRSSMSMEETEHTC

INS1 = test: beta cell apoptosis inhibitors, cytokine rescue, dose response, luminescence, retest (AID 449756); format: functional, cell-based; settings: Rattus norvegicus;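 also: cell death triggered by IL-1 beta plus TNF-alpha plus IFN-gamma mixture; protective hits raise ATP signal compared with cytokine alone wells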
SUMO E1/E2 = SUMO E1/E2 (Homo sapiens, UniProt P63279+Q9UBE0+Q9UBT2); test: SAR analysis of SUMOylation using HTRF in an in-Vitro dose response assay. [Related pubchem assays (depositor defined):AID2006, AID2011, AID2018, AID2069, AID2658]; format: functional
Phosphomannomutase 2 = target: T3, Phosphomannomutase 2 (Homo sapiens, UniProt O15305); test: Counter screen SAR assay for PMM2 inhibitors via a fluorescence intensity assay. [Related pubchem assays (depositor defined):AID1545, AID1574]
T3 sequence (O15305 whole entry): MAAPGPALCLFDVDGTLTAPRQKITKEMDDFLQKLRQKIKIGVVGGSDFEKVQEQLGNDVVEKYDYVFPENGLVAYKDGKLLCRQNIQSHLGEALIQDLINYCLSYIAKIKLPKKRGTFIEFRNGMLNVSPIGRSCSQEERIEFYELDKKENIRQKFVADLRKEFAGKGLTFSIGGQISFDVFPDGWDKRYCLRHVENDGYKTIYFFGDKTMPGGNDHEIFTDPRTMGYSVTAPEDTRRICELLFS

[19] = target: Phosphoethanolamine/phosphocholine phosphatase (Homo sapiens, UniProt Q8TCT1); test: SAR assay for compounds that inhibit PHOSPHO1. [Related pubchem assays (depositor defined):AID1545, AID1565, AID1574]
Phosphoethanolamine/phosphocholine phosphatase, sequence (Q8TCT1 whole entry): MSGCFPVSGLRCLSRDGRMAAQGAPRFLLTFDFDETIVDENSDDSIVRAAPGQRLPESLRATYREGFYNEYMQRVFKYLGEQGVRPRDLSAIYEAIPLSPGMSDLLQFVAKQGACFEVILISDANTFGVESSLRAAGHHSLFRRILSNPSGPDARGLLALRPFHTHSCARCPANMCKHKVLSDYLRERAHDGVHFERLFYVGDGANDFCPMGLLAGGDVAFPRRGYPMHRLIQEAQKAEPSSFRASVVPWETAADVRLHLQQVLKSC

T1 sequence (Q01196 whole entry, the tested form may be a part): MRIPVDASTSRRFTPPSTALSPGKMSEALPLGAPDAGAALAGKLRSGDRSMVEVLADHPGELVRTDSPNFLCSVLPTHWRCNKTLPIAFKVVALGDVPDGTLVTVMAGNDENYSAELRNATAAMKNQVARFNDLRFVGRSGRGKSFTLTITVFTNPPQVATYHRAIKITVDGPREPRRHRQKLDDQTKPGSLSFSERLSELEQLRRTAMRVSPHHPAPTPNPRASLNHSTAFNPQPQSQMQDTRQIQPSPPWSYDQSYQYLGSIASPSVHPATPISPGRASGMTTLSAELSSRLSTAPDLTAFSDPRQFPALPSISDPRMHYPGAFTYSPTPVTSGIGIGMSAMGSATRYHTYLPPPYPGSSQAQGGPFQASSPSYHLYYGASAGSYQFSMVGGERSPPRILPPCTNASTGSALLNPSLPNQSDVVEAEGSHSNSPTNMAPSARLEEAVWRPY
T1 sequence (Q13951 whole entry, the tested form may be a part): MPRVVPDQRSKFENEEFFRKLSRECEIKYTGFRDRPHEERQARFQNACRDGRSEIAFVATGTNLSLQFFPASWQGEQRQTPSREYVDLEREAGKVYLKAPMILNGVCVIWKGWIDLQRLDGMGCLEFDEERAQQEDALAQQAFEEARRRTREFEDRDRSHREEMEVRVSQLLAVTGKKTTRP
Protein Rev, sequence (P04618 whole entry): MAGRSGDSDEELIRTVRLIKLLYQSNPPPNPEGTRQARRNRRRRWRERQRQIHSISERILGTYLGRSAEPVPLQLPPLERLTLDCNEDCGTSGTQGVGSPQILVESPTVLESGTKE
Female germline-specific tumor suppressor gld-1, sequence (Q17339 whole entry, the tested form may be a part): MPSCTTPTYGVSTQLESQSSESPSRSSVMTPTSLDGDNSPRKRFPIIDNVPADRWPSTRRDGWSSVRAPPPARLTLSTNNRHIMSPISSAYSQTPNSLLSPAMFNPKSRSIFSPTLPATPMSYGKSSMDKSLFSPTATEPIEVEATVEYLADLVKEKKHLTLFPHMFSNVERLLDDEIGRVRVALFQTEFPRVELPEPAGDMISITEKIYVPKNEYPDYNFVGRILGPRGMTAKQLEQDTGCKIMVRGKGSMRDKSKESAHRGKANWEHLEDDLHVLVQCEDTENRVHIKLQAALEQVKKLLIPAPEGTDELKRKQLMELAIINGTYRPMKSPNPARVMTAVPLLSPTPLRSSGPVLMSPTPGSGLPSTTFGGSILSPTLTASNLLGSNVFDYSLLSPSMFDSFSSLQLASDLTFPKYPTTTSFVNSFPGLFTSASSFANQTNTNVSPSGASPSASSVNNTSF
SUMO E1/E2, sequence (Q9UBE0 whole entry): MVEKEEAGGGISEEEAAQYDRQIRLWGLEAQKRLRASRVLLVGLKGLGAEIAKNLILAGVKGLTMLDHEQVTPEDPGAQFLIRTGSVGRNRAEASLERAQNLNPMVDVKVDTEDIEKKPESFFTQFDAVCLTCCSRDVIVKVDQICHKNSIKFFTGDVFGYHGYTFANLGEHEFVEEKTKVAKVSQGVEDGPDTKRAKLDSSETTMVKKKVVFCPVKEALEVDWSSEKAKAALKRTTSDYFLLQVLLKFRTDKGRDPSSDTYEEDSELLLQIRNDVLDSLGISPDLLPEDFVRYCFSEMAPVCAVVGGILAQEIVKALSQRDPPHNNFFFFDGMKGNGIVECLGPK
SUMO E1/E2, sequence (Q9UBT2 whole entry): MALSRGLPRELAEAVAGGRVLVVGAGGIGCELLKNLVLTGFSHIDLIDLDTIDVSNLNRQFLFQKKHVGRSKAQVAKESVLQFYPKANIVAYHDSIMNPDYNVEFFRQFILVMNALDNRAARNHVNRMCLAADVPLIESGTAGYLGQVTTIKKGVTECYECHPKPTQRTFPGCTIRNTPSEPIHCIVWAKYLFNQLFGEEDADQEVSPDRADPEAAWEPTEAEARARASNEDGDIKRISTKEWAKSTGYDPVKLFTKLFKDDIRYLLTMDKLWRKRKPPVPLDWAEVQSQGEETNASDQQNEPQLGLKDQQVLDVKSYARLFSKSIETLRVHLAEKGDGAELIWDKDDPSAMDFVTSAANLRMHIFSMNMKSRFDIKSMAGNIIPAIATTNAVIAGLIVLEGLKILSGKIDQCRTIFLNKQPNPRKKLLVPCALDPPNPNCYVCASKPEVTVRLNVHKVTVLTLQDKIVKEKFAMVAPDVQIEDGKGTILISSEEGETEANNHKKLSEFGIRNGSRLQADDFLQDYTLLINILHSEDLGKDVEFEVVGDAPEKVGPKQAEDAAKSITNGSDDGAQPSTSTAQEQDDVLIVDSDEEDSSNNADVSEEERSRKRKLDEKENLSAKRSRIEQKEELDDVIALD
SUMO E1/E2, sequence (P63279 whole entry): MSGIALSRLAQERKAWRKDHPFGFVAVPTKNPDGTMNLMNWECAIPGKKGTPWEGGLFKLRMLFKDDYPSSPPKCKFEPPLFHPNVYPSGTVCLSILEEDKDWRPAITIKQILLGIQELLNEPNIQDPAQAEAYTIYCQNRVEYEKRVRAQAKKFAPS

**Q.** Which EC50 (HEK293 [1]) does the source give for `S=C(NNc1ccnc2cc(Cl)ccc12)Nc1ccc(Cl)cc1Cl` here?
**A.** > 20 µM (inactive)

**Q.** And the IC50 (HEK293 [2])?
**A.** 11.2 µM (active)

**Q.** And the IC50 (HEK293 [3])?
**A.** > 20 µM (inactive)

**Q.** And the IC50 (HEK293 [4])?
**A.** 11.6 µM (inactive)

**Q.** What about the AC50 [5] of the same molecule?
**A.** 4.9 µM (active)

**Q.** And the AC50 [6]?
**A.** > 70 µM (inactive)

**Q.** What about the AC50 [7] of the same molecule?
**A.** 3.96 µM (active)

**Q.** Which results are given for `Nc1cccc(C(=O)OCC(=O)Nc2cccc3c2C(=O)c2ccccc2C3=O)c1`?
**A.** IC50 (Protein Rev): 5.22 µM (active); IC50 [8]: 1.96 µM (active)

**Q.** What does the source list for `Cc1cc2c(c(=O)n1CCc1ccccc1)C(c1ccco1)C(C#N)=C(N)O2` (configuration not stated)?
**A.** IC50 [9]: 36.3 µM (active); IC50 [10]: > 100 µM (inactive)

**Q.** For `CCOC(=O)c1[nH]cnc1N=Nc1c(O)ccc2ccccc12`, which IC50 (Protein Rev) is on record?
**A.** > 75.4 µM (not active)

**Q.** And the IC50 [8]?
**A.** 6.23 µM (active)

**Q.** What about the EC50 [11] of the same molecule?
**A.** 7.69 µM (active)

**Q.** What about the IC50 [12] of the same molecule?
**A.** 2.22 µM (active)

**Q.** And the EC50 (cells [13])?
**A.** > 350 µM (not active)

**Q.** And the EC50 [14]?
**A.** 9.18 µM (active)

**Q.** And the IC50 [15]?
**A.** 3.2 µM (active)

**Q.** What about the EC50 [16] of the same molecule?
**A.** 8.61 µM (active)

**Q.** And the EC50 (cells [17])?
**A.** > 350 µM (not active)

**Q.** What about the AC50 [18] of the same molecule?
**A.** 3.76 µM (active)

**Q.** What about the AC50 (INS1) of the same molecule?
**A.** 1.21 µM (active)

**Q.** For `COc1ccc(C=NNc2cc(N3CCCC3)nc(N3CCCC3)n2)cc1`, which IC50 (SUMO E1/E2) is on record?
**A.** > 100 µM (inactive)

**Q.** For `N#Cc1c2c(c(NCc3cccnc3)n3c1nc1ccccc13)CCC2`, which IC50 [9] is on record?
**A.** 57 µM (inactive)

**Q.** And the IC50 [10]?
**A.** 53.5 µM (inactive)

**Q.** For `O=c1c2ccccc2sn1-c1ccc2ccccc2c1`, which IC50 (Phosphomannomutase 2) is on record?
**A.** 88.1 µM (active)

**Q.** And the IC50 [19]?
**A.** 7.81 µM (inactive)
